According to publication PMC9780108, “An intrinsically disordered antimicrobial peptide dendrimer from stereorandomized virtual screening” (Cell Reports. Physical Science, 2022):
In brackets after ≈: the same amount, converted by molar mass. Positions of bridges follow the written chain, without caps; N, C: chain ends. Non-standard residues stand in square brackets, D forms with d. Residues, ends and D or L forms follow the SMILES beside them. Groups on a side chain read outwards from the residue. Chains are numbered I, II in the order given. *: point of attachment. X4 = CC(C)C[C@@H](NC(=O)CCCCCN)C(=O)NCCCC[C@@H](NC(=O)[C@@H](CC(C)C)NC(=O)CCCCCN)C(=O)*; Ahx = NCCCCCC(=O)O

Experiments:
K. pneumoniae NCTC 418 = conditions: for MIC at pH 5.0, K. pneumoniae NCTC 418: NCTC 418, pH 5; for MIC at pH 7.4, K. pneumoniae NCTC 418: NCTC 418, pH 7.4; for MIC at pH 8.0, K. pneumoniae NCTC 418: NCTC 418, pH 8
HEK293 cell line = type: cell-based; conditions: 48 h
Procedure: HEK 293 cell line were cultured and maintained in DMEM (Dulbeccos modified Eagle
medium, Sigma Aldrich) supplemented with 10% FBS (Sigma Aldrich) and 1%
penicillin/streptomycin. Cells were incubated in a humidified incubator at 37°C in the presence
HEK 293 cell were seeded into 96 well plates at the density of 2 × 10^3 cells/well and incubated
in DMEM containing 10% FBS for 10-14 hours at 37°C in the presence of 5% CO2. The next
day, stock solution of compounds were prepared at concentration of 2 mg/mL in DMEM
containing 10% FBS. 1/2 or 1/3 serial dilution of the peptide dendrimers from 2 mg/mL or 200
µg/mL were performed in DMEM containing 10% FBS. The medium was removed from cell
culture and replaced with the compounds at different concentration after washing with PBS.
The cells were incubated in DMEM containing 10% FBS at 37°C in the presence of 5% CO 2.
Negative control was untreated cell culture without compounds and blank control was wells
without cell but only medium. After 48 hours, a final concentration of 10% AlamarBlue®
(Thermo Fisher Scientific, Reinach, CH) was added to each well . The cells were incubated for
3-5 hours at 37°C with 5% CO 2. The fluorescence was then measured on a Tecan Infinite
M1000 Pro plate reader at λex = 560 nm and λem = 590 nm. The value was normalized
according to the untreated cells.

P. aeruginosa PAO1 = conditions: for MIC at pH 5.0, P. aeruginosa PAO1: PAO1, pH 5; for MIC at pH 7.4, P. aeruginosa PAO1: PAO1, pH 7.4; for MIC at pH 8.0, P. aeruginosa PAO1: PAO1, pH 8
A. baumannii ATCC 19606 = conditions: for MIC at pH 5.0, A. baumannii ATCC 19606: ATCC 19606, pH 5; for MIC at pH 7.4, A. baumannii ATCC 19606: ATCC 19606, pH 7.4; for MIC at pH 8.0, A. baumannii ATCC 19606: ATCC 19606, pH 8
[1] = tested on: S aureus COL (methicillin-resistant Staphylococcus aureus); conditions: for MIC at pH 5.0, S aureus COL: COL (methicillin-resistant, pH 5); for MIC at pH 7.4, S aureus COL: COL (methicillin-resistant, pH 7.4); for MIC at pH 8.0, S aureus COL: COL (methicillin-resistant, pH 8)
E. coli W3110 = conditions: for MIC at pH 5.0, E. coli W3110: W3110, pH 5; for MIC at pH 7.4, E. coli W3110: W3110, pH 7.4; for MIC at pH 8.0, E. coli W3110: W3110, pH 8

SMILES	MIC at pH 5.0, K. pneumoniae NCTC 418 (K. pneumoniae NCTC 418)	MIC at pH 7.4, K. pneumoniae NCTC 418 (K. pneumoniae NCTC 418)	MIC at pH 8.0, K. pneumoniae NCTC 418 (K. pneumoniae NCTC 418)	IC50 HEK293 (HEK293 cell line) [µg/mL]	MIC at pH 5.0, P. aeruginosa PAO1 (P. aeruginosa PAO1) [μg/mL]	MIC at pH 7.4, P. aeruginosa PAO1 (P. aeruginosa PAO1) [μg/mL]	MIC at pH 8.0, P. aeruginosa PAO1 (P. aeruginosa PAO1) [μg/mL]	MIC at pH 5.0, A. baumannii ATCC 19606 (A. baumannii ATCC 19606)	MIC at pH 7.4, A. baumannii ATCC 19606 (A. baumannii ATCC 19606)	MIC at pH 8.0, A. baumannii ATCC 19606 (A. baumannii ATCC 19606)	MIC at pH 5.0, S aureus COL [1] [μg/mL]	MIC at pH 7.4, S aureus COL [1] [μg/mL]	MIC at pH 8.0, S aureus COL [1] [μg/mL]	MIC at pH 5.0, E. coli W3110 (E. coli W3110) [μg/mL]	MIC at pH 7.4, E. coli W3110 (E. coli W3110) [μg/mL]	MIC at pH 8.0, E. coli W3110 (E. coli W3110) [μg/mL]
CC(C)C[C@@H](NC(=O)CCCCCN)C(=O)NCCCC[C@@H](NC(=O)[C@@H](CC(C)C)NC(=O)CCCCCN)C(=O)N[C@H](CC(C)C)C(=O)NCCCC[C@@H](NC(=O)[C@@H](CC(C)C)NC(=O)[C@@H](CCCCNC(=O)[C@@H](CC(C)C)NC(=O)CCCCCN)NC(=O)[C@@H](CC(C)C)NC(=O)CCCCCN)C(=O)N[C@H](CCCCN)C(=O)N[C@H](CC(C)C)C(=O)N[C@H](CC(C)C)C(=O)NCCCC[C@@H](NC(=O)[C@@H](CC(C)C)NC(=O)[C@@H](CC(C)C)NC(=O)[C@@H](CCCCN)NC(=O)[C@@H](CCCCNC(=O)[C@@H](CC(C)C)NC(=O)[C@@H](CCCCNC(=O)[C@@H](CC(C)C)NC(=O)CCCCCN)NC(=O)[C@@H](CC(C)C)NC(=O)CCCCCN)NC(=O)[C@@H](CC(C)C)NC(=O)[C@@H](CCCCNC(=O)[C@@H](CC(C)C)NC(=O)CCCCCN)NC(=O)[C@@H](CC(C)C)NC(=O)CCCCCN)C(=O)N[C@H](CC(C)C)C(=O)N[C@H](CCCCN)C(=O)N[C@H](CCCCN)C(N)=O [D-aX22] (I: H-[Ahx][dL][dK]([dL-Ahx])[dL][dK]([dL-X4])[dK][dL][dL][dK][dL][dK][dK]-NH2 / II: H-[Ahx][dL][dK]([dL-Ahx])[dL][dK]([dL-X4])[dK][dL][dL]; amide I:9-II:C)	64 μg/mL	16 μg/mL	16 μg/mL	17 ± 2 (≈ 3.99 µM)	32	8	16	4/4/4 μg/mL	4/4/4 μg/mL	4/4/4 μg/mL	> 64	16	4	4	8	4
CC(C)C[C@@H](NC(=O)[C@@H](CC(C)C)NC(=O)[C@@H](CCCCN)NC(=O)[C@@H](CCCCNC(=O)[C@@H](CC(C)C)NC(=O)[C@@H](CC(C)C)NC(=O)[C@@H](CCCCNC(=O)[C@@H](CC(C)C)NC(=O)[C@@H](CCCCN)NC(=O)[C@@H](CCCCNC(=O)[C@@H](CC(C)C)NC(=O)[C@H](N)CCCCN)NC(=O)[C@@H](CC(C)C)NC(=O)[C@H](N)CCCCN)NC(=O)[C@@H](CC(C)C)NC(=O)[C@@H](CCCCN)NC(=O)[C@@H](CCCCNC(=O)[C@@H](CC(C)C)NC(=O)[C@H](N)CCCCN)NC(=O)[C@@H](CC(C)C)NC(=O)[C@H](N)CCCCN)NC(=O)[C@@H](CC(C)C)NC(=O)[C@@H](CC(C)C)NC(=O)[C@@H](CCCCNC(=O)[C@@H](CC(C)C)NC(=O)[C@@H](CCCCN)NC(=O)[C@@H](CCCCNC(=O)[C@@H](CC(C)C)NC(=O)[C@H](N)CCCCN)NC(=O)[C@@H](CC(C)C)NC(=O)[C@H](N)CCCCN)NC(=O)[C@@H](CC(C)C)NC(=O)[C@@H](CCCCN)NC(=O)[C@@H](CCCCNC(=O)[C@@H](CC(C)C)NC(=O)[C@H](N)CCCCN)NC(=O)[C@@H](CC(C)C)NC(=O)[C@H](N)CCCCN)C(N)=O [D-T25, reference compound] (HELM PEPTIDE1{[dK].[dL].[dK].[dK].[dL].[dK].[dL].[dL].[dK].[dK].[dL].[dL].[am]}|PEPTIDE2{[dK].[dL]}|PEPTIDE3{[dK].[dL].[dK].[dK].[dL].[dK].[dL].[dL]}|PEPTIDE4{[dK].[dL]}|PEPTIDE5{[dK].[dL].[dK].[dK].[dL]}|PEPTIDE6{[dK].[dL]}|PEPTIDE7{[dK].[dL].[dK].[dK].[dL]}|PEPTIDE8{[dK].[dL]}$PEPTIDE1,PEPTIDE2,3:R3-2:R2|PEPTIDE3,PEPTIDE4,3:R3-2:R2|PEPTIDE5,PEPTIDE6,3:R3-2:R2|PEPTIDE7,PEPTIDE8,3:R3-2:R2|PEPTIDE1,PEPTIDE7,6:R3-5:R2|PEPTIDE1,PEPTIDE3,9:R3-8:R2|PEPTIDE3,PEPTIDE5,6:R3-5:R2$$$V2.0)	> 64 μg/mL	16 μg/mL	16 μg/mL	33 ± 3 (≈ 7.15 µM)	32	8	8	32 μg/mL	8 μg/mL	4 μg/mL	> 64	> 64	32	32	8	4
CC(C)C[C@@H](NC(=O)[C@@H](CC(C)C)NC(=O)[C@@H](CC(C)C)NC(=O)[C@@H](CCCCNC(=O)[C@@H](CC(C)C)NC(=O)[C@@H](CC(C)C)NC(=O)[C@@H](CCCCNC(=O)[C@@H](CCCCN)NC(=O)[C@@H](CC(C)C)NC(=O)[C@@H](CCCCNC(=O)[C@@H](CC(C)C)NC(=O)[C@H](N)CCCCN)NC(=O)[C@@H](CC(C)C)NC(=O)[C@H](N)CCCCN)NC(=O)[C@@H](CCCCN)NC(=O)[C@@H](CC(C)C)NC(=O)[C@@H](CCCCNC(=O)[C@@H](CC(C)C)NC(=O)[C@H](N)CCCCN)NC(=O)[C@@H](CC(C)C)NC(=O)[C@H](N)CCCCN)NC(=O)[C@@H](CC(C)C)NC(=O)[C@@H](CC(C)C)NC(=O)[C@@H](CCCCNC(=O)[C@@H](CCCCN)NC(=O)[C@@H](CC(C)C)NC(=O)[C@@H](CCCCNC(=O)[C@@H](CC(C)C)NC(=O)[C@H](N)CCCCN)NC(=O)[C@@H](CC(C)C)NC(=O)[C@H](N)CCCCN)NC(=O)[C@@H](CCCCN)NC(=O)[C@@H](CC(C)C)NC(=O)[C@@H](CCCCNC(=O)[C@@H](CC(C)C)NC(=O)[C@H](N)CCCCN)NC(=O)[C@@H](CC(C)C)NC(=O)[C@H](N)CCCCN)C(N)=O [D-X18] (HELM PEPTIDE1{[dK].[dL].[dK].[dL].[dK].[dK].[dL].[dL].[dK].[dL].[dL].[dL].[am]}|PEPTIDE2{[dK].[dL]}|PEPTIDE3{[dK].[dL].[dK].[dL].[dK].[dK].[dL].[dL]}|PEPTIDE4{[dK].[dL]}|PEPTIDE5{[dK].[dL].[dK].[dL].[dK]}|PEPTIDE6{[dK].[dL]}|PEPTIDE7{[dK].[dL].[dK].[dL].[dK]}|PEPTIDE8{[dK].[dL]}$PEPTIDE1,PEPTIDE2,3:R3-2:R2|PEPTIDE3,PEPTIDE4,3:R3-2:R2|PEPTIDE5,PEPTIDE6,3:R3-2:R2|PEPTIDE7,PEPTIDE8,3:R3-2:R2|PEPTIDE1,PEPTIDE7,6:R3-5:R2|PEPTIDE1,PEPTIDE3,9:R3-8:R2|PEPTIDE3,PEPTIDE5,6:R3-5:R2$$$V2.0)	>64/>64/>64 μg/mL	>64/>64/>64 μg/mL	>64/>64/>64 μg/mL	47 ± 12 (≈ 10.2 µM)	32	64	32	32 μg/mL	64 μg/mL	32 μg/mL	> 64	> 64	32	32	64	32
